Entries after “also recorded” stand apart in the source; their conditions may differ.
Key:
[1] = Phase 1 study, Dose-Proportionality Extension Period: PK of plasma total Mo and PUF Mo (incl. dose-normalized, power model); assay type: in vivo, healthy adult participants; conditions: any of the treatments evaluated
Description: (§1) The safety and tolerability of the 2 formulations of BC-TTM in healthy participants was also assessed. BC-TTM pharmacokinetics (PK) in plasma as measured via total molybdenum (Mo) and plasma ultrafiltrate (PUF) Mo was determined.
The Dose-Proportionality Extension Period was a re-randomized, open-label, parallel group design to assess the dose-proportionality between 2.5 mg (2×1.25 mg), 5 mg (4×1.25 mg), 10 mg (8×1.25 mg), and 30 mg (24×1.25 mg) EC mini-tablet doses. The 15 mg (12×1.25 mg) dose was not repeated during the Dose-Proportionality Extension Period.
The Dose-Proportionality Extension Period was conducted following completion of the Two-way Crossover Period of the study and after an at least 14-day washout period. Participants were re-randomized as follows: • Treatment C (N=10-12): BC-TTM 2.5 mg (2×1.25 mg EC mini-tablets) • Treatment D (N=10-12): BC-TTM 5 mg (4×1.25 mg EC mini-tablets) • Treatment E (N=10-12): BC-TTM 10 mg (8×1.25 mg EC mini-tablets) • Treatment F (N=10-12): BC-TTM 30 mg (24×1.25 ma EC mini-tablets)
The dose-proportionality evaluation included data obtained from Treatment A of the Two-way Crossover Period (12×1.25 mg EC mini-tablets) to represent a dose of 15 mg,
Re-randomized treatment assignment were based on Baseline body mass index (BMI). Two strata for Baseline BM (<25, 25 to <32 kg/m^2) were used. […]

[2] = Phase 1 study: safety and tolerability (TEAEs, TESAEs, clinical laboratory); assay type: in vivo, healthy adult participants
Description: as §1

What does the source list for C[N+](C)(C)CCO.C[N+](C)(C)CCO.[SH-].[SH-].[S]=[Mo]=[S] [BC-TTM, Bis-choline tetrathiomolybdate]?
effect of body weight or BMI on BC-TTM PK [1]: apparently not affected; also recorded: There was no apparent effect of body; deaths or TESAEs ([2]; all treatments): No deaths or TESAEs were reported; severity of TEAEs ([2]; all treatments, except 2 Grade 4 events after Treatment B): All TEAEs were Grade 1 or 2 in severity,; safety profile and tolerability ([2]; single oral dose 2.5 mg to 30 mg as EC mini-tablets and as a 15 mg EC tablet): acceptable safety profile and was generally well-tolerated

Reference: US20240100088A1, “NOVEL FORMULATION FOR TREATING COPPER METABOLISM-ASSOCIATED DISEASES OR DISORDERS” (Alexion Pharmaceuticals, Inc., priority 2021, published 2024)
